Reference: patent US20240409585A1, “MACROCYCLIC IMMUNOMODULATORS” (priority 2021, published 2024)
Where two headings read alike, the source gives them in different places. Bridge positions count the residues as written; N and C are the ends. Square brackets hold non-standard residues; d marks the D form. Peptide text beside a SMILES is read from it. * marks the point of attachment. Phe(3-CF3) = N[C@@H](Cc1cccc(C(F)(F)F)c1)C(=O)O; Ala(morpholin-4-yl) = N[C@@H](CN1CCOCC1)C(=O)O; Bip = N[C@@H](Cc1ccc(-c2ccccc2)cc1)C(=O)O; hPhe = N[C@@H](CCc1ccccc1)C(=O)O; Cha = N[C@@H](CC1CCCCC1)C(=O)O; Carboxymethyl = O=C(O)C*; NMeA = CN[C@@H](C)C(=O)O; Orn = NCCC[C@H](N)C(=O)O; Dab = NCC[C@H](N)C(=O)O

Assays:
[1] = target: T1, Alexa fluor-647 labeled human PD-L1-Ig binding to Jurkat cell line over-expressing human PD-1 (Homo sapiens, UniProt Q15116); test: Jurkat-PD-1 Cell Binding High-Content Screening Assay (CBA): Method 3 (Alexa fluor-647 labeled PD-L1-Ig); settings: Jurkat-PD-1 cells, Alexa fluor-647 labeled PD-L1-Ig 177 nM
T1 construct: expressed in transfected cells; host or cells: Jurkat
Procedure, shortened: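 Jurkat cells over-expressing human PD-1 in RPMI/10% FCS were preincubated 2 h at 37 °C with compound, then exposed 1 h to Alexa fluor-647 labeled human PD-L1-Ig (177 nM final). Cells fixed in 4% paraformaldehyde with Hoechst 33342 and binding quantified by high-content imaging.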

[2] = target: T2, PD1-PDL1 protein-protein binding interaction [hPD1(25-167)-hIgG, hPD-L1 (19-239)-6xHis] (Homo sapiens, UniProt Q15116); test: HTRF Assay (TR-FRET); settings: 5 nM hPD1-hIgG, 5 nM hPD-L1-6xHis, 24 hours at 25° C., head μM
T2 construct: hPD1(25-167)-hIgG, BMS
Protocol: A time-resolved fluorescence resonance energy transfer (TR-FRET) assay was employed to measure the inhibition of the PD1-PDL1 protein-protein binding interaction. The reaction buffer was prepared by mixing the HiBlock buffer and LANCE detection buffer (PerkinElmer, TRF1011F and CR97-100) at a 1:1 ratio. Assay reactions contained 5 nM human programmed cell death 1 [hPD1(25-167)-hIgG, BMS], 5 nM human programmed cell death ligand 1 [hPD-L1 (19-239)-6×His, BMS], in the presence of 1 nM LANCE Eu-W1024 Anti-Human IgG (Eu-anti hIgG, PerkinElmer, AD0074) and 20 nM SureLight Allophycocyanin-anti-6×His antibody (APC-anti-6×His, PerkinElmer, AD0059H). Test compounds were evaluated in a 10-point dose-response format with serial three-fold dilutions starting from a 2 uM top concentration. Reactions were carried out in a total volume of 10 uL in 384-well microtiter plates (Proxiplate white, PerkinElmer, 6008289). Plates were sealed and incubated for 24 hours at 25° C. After 24 hours, the TR-FRET signal was measured using a PerkinElmer EnVision multimode plate reader and the resulting ratiometric data set (signal at 665 nm/615 nm, multiplied by a factor of 10,000) was recorded. The concentration giving half-maximal inhibition (the IC50) was obtained by fitting the data to a four-parameter logistic equation using Graphpad Prism or Dotmatics.

T1 sequence (Q15116 25-288): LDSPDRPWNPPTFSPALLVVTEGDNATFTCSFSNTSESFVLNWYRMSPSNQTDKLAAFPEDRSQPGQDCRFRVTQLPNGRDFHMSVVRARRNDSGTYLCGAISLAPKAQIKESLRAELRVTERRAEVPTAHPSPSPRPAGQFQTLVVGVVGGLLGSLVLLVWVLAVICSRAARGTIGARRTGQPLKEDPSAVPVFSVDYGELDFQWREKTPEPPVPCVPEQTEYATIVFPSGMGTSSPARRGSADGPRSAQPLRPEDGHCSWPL
T2 sequence (Q15116 25-167): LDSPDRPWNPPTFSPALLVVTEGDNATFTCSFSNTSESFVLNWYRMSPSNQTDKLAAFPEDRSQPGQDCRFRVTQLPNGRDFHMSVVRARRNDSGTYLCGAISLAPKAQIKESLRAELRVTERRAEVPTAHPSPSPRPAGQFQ

Row | IC50 ([1]; head μM, read-out: CBA Method 3 μM) [µM] | IC50 [2] [µM] | IC50 ([1]; nM, read-out: CBA Method 3) [µM] | Compound
1 | 0.01 | 0.04 | – | CC(C)C[C@H]1NC(=O)[C@H](C)N(C)C(=O)[C@H](CCC(N)=O)NC(=O)[C@H](Cc2ccc(-c3ccccc3)cc2)NC(=O)[C@H](CCc2ccccc2)NC(=O)[C@H](Cc2cccc(C(F)(F)F)c2)NC(=O)[C@H](CC(=O)O)NC(=O)[C@H](Cc2ccc(OCC(=O)O)cc2)NC(=O)[C@H](CN2CCOCC2)NC(=O)CSC[C@@H](C(=O)N[C@@H](CCN)C(N)=O)NC(=O)[C@H](CCC(=O)O)NC(=O)[C@H](C(C)C)NC(=O)[C@H](CC2CCCCC2)NC(=O)[C@H](CCN)NC1=O [Example 5211] ({CH2CO}-[Ala(morpholin-4-yl)]Y(Carboxymethyl)D[Phe(3-CF3)][hPhe][Bip]Q[NMeA][dL][Dab][Cha]VEC[Dab]-NH2; thioether N-14)
2 | – | 0.03 | 0.0036 | CC(C)C[C@H]1NC(=O)[C@H](C)N(C)C(=O)[C@H](CCC(N)=O)NC(=O)[C@H](Cc2ccc(-c3ccccc3)cc2)NC(=O)[C@H](CCc2ccccc2)NC(=O)[C@H](Cc2cccc(C(F)(F)F)c2)NC(=O)[C@H](CC(=O)O)NC(=O)[C@H](Cc2ccc(O)cc2)NC(=O)[C@H](CN2CCOCC2)NC(=O)CSC[C@@H](C(=O)N[C@@H](CCN)C(N)=O)NC(=O)[C@H](CCCN)NC(=O)[C@H](C(C)C)NC(=O)[C@H](CC2CCCCC2)NC(=O)[C@H](CCN)NC1=O [Example 5235] ({CH2CO}-[Ala(morpholin-4-yl)]YD[Phe(3-CF3)][hPhe][Bip]Q[NMeA][dL][Dab][Cha]V[Orn]C[Dab]-NH2; thioether N-14)
